Consider 21 compounds from patent US8148391B2 (Cephalon, Inc., priority 2006, dated 2012).

In assay [1] the target is T1, c-Met (cytoplasmic domain) (Homo sapiens, UniProt P08581).
T1 construct: 10 ng/mL c-Met (cytoplasmic domain, Invitrogen Corporation #PV3143); purchased Invitrogen Corporation PV3143
The assay is described as follows: c-Met Kinase Assay (same methods as for ALK, with modifications). Type of assay: biochemical. Summed up:
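Steps: coat wells with PLC-γ (10 μg/mL, Tris-buffered saline); add 10 ng/mL c-Met cytoplasmic domain to initiate; incubate 15 min, 37° C; detect phosphoproduct via Eu-N1 PT66 antibody.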

For assay [2], the target named is T2, baculovirus-expressed ALK (Homo sapiens, UniProt Q9UM73).
T2 construct: host or cells: baculovirus expression system
T2 sequence (Q9UM73 19-1620): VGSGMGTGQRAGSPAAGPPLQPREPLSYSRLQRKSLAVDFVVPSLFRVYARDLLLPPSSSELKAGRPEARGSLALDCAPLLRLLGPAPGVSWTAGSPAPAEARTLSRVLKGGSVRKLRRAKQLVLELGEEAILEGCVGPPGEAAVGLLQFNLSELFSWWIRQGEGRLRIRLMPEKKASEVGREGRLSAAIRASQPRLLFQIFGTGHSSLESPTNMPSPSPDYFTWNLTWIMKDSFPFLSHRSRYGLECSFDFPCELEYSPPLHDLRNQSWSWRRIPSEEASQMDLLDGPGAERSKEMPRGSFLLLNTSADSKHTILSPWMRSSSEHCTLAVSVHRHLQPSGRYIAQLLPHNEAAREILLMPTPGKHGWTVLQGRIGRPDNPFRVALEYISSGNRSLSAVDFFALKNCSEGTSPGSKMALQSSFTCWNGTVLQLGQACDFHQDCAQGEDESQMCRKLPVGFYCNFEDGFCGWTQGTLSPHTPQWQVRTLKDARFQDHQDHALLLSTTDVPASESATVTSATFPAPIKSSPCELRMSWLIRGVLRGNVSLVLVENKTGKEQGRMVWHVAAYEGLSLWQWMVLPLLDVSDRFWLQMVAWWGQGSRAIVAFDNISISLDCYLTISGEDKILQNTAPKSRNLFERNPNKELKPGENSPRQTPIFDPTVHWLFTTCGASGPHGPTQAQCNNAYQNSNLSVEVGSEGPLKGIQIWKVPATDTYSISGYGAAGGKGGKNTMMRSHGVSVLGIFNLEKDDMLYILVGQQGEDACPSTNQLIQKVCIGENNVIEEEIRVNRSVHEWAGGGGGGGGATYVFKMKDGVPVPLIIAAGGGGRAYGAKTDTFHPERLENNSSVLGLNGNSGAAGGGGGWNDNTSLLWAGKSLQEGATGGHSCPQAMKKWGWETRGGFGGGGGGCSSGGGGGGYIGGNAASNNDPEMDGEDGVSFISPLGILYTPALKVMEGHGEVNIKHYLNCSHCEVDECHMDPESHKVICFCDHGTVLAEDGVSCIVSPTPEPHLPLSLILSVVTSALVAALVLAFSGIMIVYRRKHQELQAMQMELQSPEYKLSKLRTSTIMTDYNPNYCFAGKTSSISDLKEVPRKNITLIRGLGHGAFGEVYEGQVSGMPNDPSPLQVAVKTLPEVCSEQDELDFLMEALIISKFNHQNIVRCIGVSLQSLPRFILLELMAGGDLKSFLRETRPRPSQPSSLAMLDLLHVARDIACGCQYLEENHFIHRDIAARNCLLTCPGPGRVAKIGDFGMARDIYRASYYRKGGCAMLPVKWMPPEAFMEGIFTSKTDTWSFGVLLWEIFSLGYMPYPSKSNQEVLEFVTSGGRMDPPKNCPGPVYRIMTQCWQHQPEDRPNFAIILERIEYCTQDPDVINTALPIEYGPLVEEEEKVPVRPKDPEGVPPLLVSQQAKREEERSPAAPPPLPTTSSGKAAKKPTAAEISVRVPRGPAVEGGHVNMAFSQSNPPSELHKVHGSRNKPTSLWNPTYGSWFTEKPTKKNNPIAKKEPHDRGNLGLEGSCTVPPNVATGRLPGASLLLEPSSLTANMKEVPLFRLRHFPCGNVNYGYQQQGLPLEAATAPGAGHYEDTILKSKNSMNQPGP
The assay is described as follows: ALK Kinase Assay (ELISA-type, time-resolved fluorescence). Format: biochemical. Summed up:
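Wells were coated with phospholipase C-γ at 10 μg/mL in Tris-buffered saline. Adding 30 ng/ml enzyme started the reaction, which ran at 37° C for 15 minutes before Eu-N1 PT66 antibody detection. Percent inhibition versus log10 concentration gave IC50 by variable-slope fit.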
For orientation: An ELISA detects its analyte on a solid surface through an enzyme-linked reagent.

[3] abbreviates: 1 μM ATP (Km level), 10 ng/mL c-Met, read-out: cMet Activity (c-Met kinase inhibition, IC50 class).
The mark [4] stands for this setting: 1 μM ATP (Km level), 30 ng/ml ALK, 37° C., 15 minutes, read-out: ALK Activity (ALK kinase inhibition, IC50 class).
[5] abbreviates: c-Met kinase inhibition, 1 μM ATP, read-out: cMet Activity.
Where [6] appears, read: ALK kinase inhibition, 1 μM ATP, read-out: ALK Activity.

Where two headings read alike, the source gives them in different places. Bounds are passed on as bounds.

T1 sequence (P08581 956-1390 limits assumed): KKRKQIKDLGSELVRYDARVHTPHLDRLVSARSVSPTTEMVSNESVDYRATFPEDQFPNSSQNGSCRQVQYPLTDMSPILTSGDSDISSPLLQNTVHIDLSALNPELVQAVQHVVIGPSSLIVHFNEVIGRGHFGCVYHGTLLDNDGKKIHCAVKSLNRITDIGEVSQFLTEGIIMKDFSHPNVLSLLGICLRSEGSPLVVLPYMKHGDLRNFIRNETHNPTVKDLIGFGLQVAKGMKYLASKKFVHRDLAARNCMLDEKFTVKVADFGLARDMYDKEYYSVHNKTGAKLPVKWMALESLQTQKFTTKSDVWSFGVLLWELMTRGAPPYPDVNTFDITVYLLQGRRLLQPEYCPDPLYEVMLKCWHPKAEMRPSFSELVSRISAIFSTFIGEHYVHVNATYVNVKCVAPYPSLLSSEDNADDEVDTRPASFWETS

As to `CNC(=O)c1cc(-c2cnn(C)c2)cc(F)c1Nc1nc(Nc2ccc3c(c2)OCCCN3C(=O)OC)ncc1Cl` [Example 1434, 3-{5-Chloro-4-[2-fluoro-6-methylcarbamoyl-4-(1-methyl-1H-pyrazol-4-yl)-phenylamino]-pyrimidin-2-ylamino}-7,8-dihydro-6H-5-oxa-9-aza-benzocycloheptene-9-carboxylic acid methyl ester], the IC50 in assay [1] (setting [3]) and in assay [2] (setting [4]) was below 100 nM throughout.
With `CNC(=O)c1sccc1Nc1nc(Nc2ccc3c(c2)OCCCN3C(=O)OC(C)C)ncc1Cl` [Example 1435, 3-[5-Chloro-4-(2-methylcarbamoyl-thiophen-3-ylamino)-pyrimidin-2-ylamino]-7,8-dihydro-6H-5-oxa-9-aza-benzocycloheptene-9-carboxylic acid isopropyl ester], the IC50 in assay [1] (setting [3]) and in assay [2] (setting [4]) was 100 to 1000 nM each time.
As to `C#CCNC(=O)c1cccc(F)c1Nc1nc(Nc2ccc3c(c2)OCCCN3C(=O)OCCOC)ncc1Cl` [Example 1437, 3-[5-Chloro-4-(2-fluoro-6-prop-2-ynylcarbamoyl-phenylamino)-pyrimidin-2-ylamino]-7,8-dihydro-6H-5-oxa-9-aza-benzocycloheptene-9-carboxylic acid 2-methoxy-ethyl ester], the IC50 was 100 to 1000 nM in assay [1] (setting [3]) and below 100 nM in assay [2] (setting [4]).
With `CNC(=O)c1cccc(F)c1Nc1nc(Nc2ccc3c(c2)OCCCN3C(=O)OC2CCCN(C)C2)ncc1Cl` (stereo not drawn) [Example 1438, 3-[5-Chloro-4-(2-fluoro-6-methylcarbamoyl-phenylamino)-pyrimidin-2-ylamino]-7,8-dihydro-6H-5-oxa-9-aza-benzocycloheptene-9-carboxylic acid 1-methyl-piperidin-3-yl ester], the IC50 in assay [1] (setting [5]) and in assay [2] (setting [6]) was below 100 nM throughout.
Take `C#CCNC(=O)c1cccc(F)c1Nc1nc(Nc2ccc3c(c2)OCCCN3C(=O)OC2CCCN(C)C2)ncc1Cl` (stereo not drawn) [Example 1439, 3-[5-Chloro-4-(2-fluoro-6-prop-2-ynylcarbamoyl-phenylamino)-pyrimidin-2-ylamino]-7,8-dihydro-6H-5-oxa-9-aza-benzocycloheptene-9-carboxylic acid 1-methyl-piperidin-3-yl ester]: the IC50 in assay [1] (setting [5]) and in assay [2] (setting [6]) was 100 to 1000 nM each time.
As to `CNC(=O)c1sccc1Nc1nc(Nc2ccc3c(c2)OCCCN3C(=O)OC2CCCN(C)C2)ncc1Cl` (stereo not drawn) [Example 1440, 3-[5-Chloro-4-(2-methylcarbamoyl-thiophen-3-ylamino)-pyrimidin-2-ylamino]-7,8-dihydro-6H-5-oxa-9-aza-benzocycloheptene-9-carboxylic acid 1-methyl-piperidin-3-yl ester], the IC50 in assay [1] (setting [5]) and in assay [2] (setting [6]) was 100 to 1000 nM each time.
For the compound `CCN1CCNC(=O)c2ccc(Nc3ncc(Cl)c(N[C@@H]4CCCC[C@H]4NS(C)(=O)=O)n3)cc21` [Example 1451, N-{(1R,2R)-2-[5-Chloro-2-(1-ethyl-5-oxo-2,3,4,5-tetrahydro-1H-benzo[e][1,4]diazepin-8-ylamino)-pyrimidin-4-ylamino]-cyclohexyl}-methanesulfonamide], the IC50 in assay [1] (setting [5]) was 100 to 1000 nM; in assay [2] (setting [6]) it was below 100 nM.
For `CCN1CCNC(=O)c2ccc(Nc3ncc(Cl)c(Nc4ccccc4C(=O)NC)n3)cc21` [Example 1452, 2-[5-Chloro-2-(1-ethyl-5-oxo-2,3,4,5-tetrahydro-1H-benzo[e][1,4]diazepin-8-ylamino)-pyrimidin-4-ylamino]-N-methyl-benzamide] the same measures were below 100 nM and below 100 nM.
As to `CCN1CCNC(=O)c2ccc(Nc3ncc(Cl)c(Nc4ccccc4-c4nccn4C)n3)cc21` [Example 1453, 8-{5-Chloro-4-[2-(1-methyl-1H-imidazol-2-yl)-phenylamino]-pyrimidin-2-ylamino}-1-ethyl-1,2,3,4-tetrahydro-benzo[e][1,4]diazepin-5-one], the results for the IC50 in assay [1] (setting [5]) and in assay [2] (setting [6]) were 100 to 1000 nM and below 100 nM, respectively.
As to `CCN1CCNc2cc(Nc3ncc(Cl)c(Nc4c(F)cccc4C(=O)NC)n3)ccc2C1=O` [Example 1454, 2-[5-Chloro-2-(4-ethyl-5-oxo-2,3,4,5-tetrahydro-1H-benzo[e][1,4]diazepin-8-ylamino)-pyrimidin-4-ylamino]-3-fluoro-N-methyl-benzamide], the figures for the IC50 in assay [1] (setting [5]) and in assay [2] (setting [6]) were below 100 nM and 100 to 1000 nM, respectively.
For the compound `CCN1CCNC(=O)c2ccc(Nc3ncc(Cl)c(Nc4ccccc4OCCN4CCOCC4)n3)cc21` [Example 1455, 8-{5-Chloro-4-[2-(2-morpholin-4-yl-ethoxy)-phenylamino]-pyrimidin-2-ylaminol}-1-ethyl-1,2,3,4-tetrahydro-benzo[e][1,4]diazepin-5-one], the IC50 in assay [1] (setting [5]) and in assay [2] (setting [6]) was above 10000 nM throughout.
With `CCN1CCN(CC)c2cc(Nc3ncc(Cl)c(N[C@@H]4CCCC[C@H]4NS(C)(=O)=O)n3)c(OC)cc2C1` [Example 1456, N-{(1R,2R)-2-[5-Chloro-2-(1,4-diethyl-7-methoxy-2,3,4,5-tetrahydro-1H-benzo[e][1,4]diazepin-8-ylamino)-pyrimidin-4-ylamino]-cyclohexyl}-methanesulfonamide], the IC50 was above 10000 nM in assay [1] (setting [5]) and below 100 nM in assay [2] (setting [6]).
As to `CCN1CCN(CC(=O)OCCOC)C(=O)c2ccc(Nc3ncc(Cl)c(N[C@H]4[C@@H]5CC[C@@H](C5)[C@H]4C(N)=O)n3)cc21` [Example 1457, {8-[4-((1R,2S,3R,4S)-3-Carbamoyl-bicyclo[2.2.1]hept-2-ylamino)-5-chloro-pyrimidin-2-ylamino]-1-ethyl-5-oxo-1,2,3,5-tetrahydro-benzo[e][1,4]diazepin-4-yl}-acetic acid 2-methoxy-ethyl ester], the results for the IC50 in assay [1] (setting [5]) and in assay [2] (setting [6]) were 1000 to 10000 nM and below 100 nM, respectively.
For `CCN1CCN(CC(=O)OCCOC)C(=O)c2ccc(Nc3ncc(Cl)c(Nc4c(F)cccc4C(=O)NC)n3)cc21` [Example 1458, {8-[5-Chloro-4-(2-fluoro-6-methylcarbamoyl-phenylamino)-pyrimidin-2-ylamino]-1-ethyl-5-oxo-1,2,3,5-tetrahydro-benzo[e][1,4]diazepin-4-yl}-acetic acid 2-methoxy-ethyl ester], the IC50 in assay [1] (setting [5]) is below 100 nM; in assay [2] (setting [6]) it was 100 to 1000 nM.
The matching figures for `CCN1CCN(CC(=O)OCCOC)C(=O)c2ccc(Nc3ncc(Cl)c(Nc4ccccc4C(=O)NC)n3)cc21` [Example 1459, {8-[5-Chloro-4-(2-methylcarbamoyl-phenylamino)-pyrimidin-2-ylamino]-1-ethyl-5-oxo-1,2,3,5-tetrahydro-benzo[e][1,4]diazepin-4-yl}-acetic acid 2-methoxy-ethyl ester]: below 100 nM and below 100 nM.
For `CCN1CCNCc2cc(OC)c(Nc3ncc(Cl)c(N[C@H]4[C@@H](C(N)=O)[C@@H]5C=C[C@H]4C5)n3)cc21` [Example 1460, (1S,2S,3R,4R)-3-[5-Chloro-2-(1-ethyl-7-methoxy-2,3,4,5-tetrahydro-1H-benzo[e][1,4]diazepin-8-ylamino)-pyrimidin-4-ylamino]-bicyclo[2.2.1]hept-5-ene-2-carboxylic acid amide], the IC50 is above 10000 nM in assay [1] (setting [5]) and below 100 nM in assay [2] (setting [6]).
Regarding `CCN1CCN(CC(=O)N(C)C)Cc2cc(OC)c(Nc3ncc(Cl)c(N[C@@H]4CCCC[C@H]4NS(C)(=O)=O)n3)cc21` [Example 1461, 2-{8-[5-Chloro-4-((1R,2R)-2-methanesulfonylamino-cyclohexylamino)-pyrimidin-2-ylamino]-1-ethyl-7-methoxy-1,2,3,5-tetrahydro-benzo[e][1,4]diazepin-4-yl}-N,N-dimethyl-acetamide], the values for the IC50 in assay [1] (setting [5]) and in assay [2] (setting [6]) were above 10000 nM and below 100 nM, respectively.
Consider `COc1cc2c(cc1Nc1ncc(Cl)c(N[C@@H]3CCCC[C@H]3NS(C)(=O)=O)n1)NC(=O)CN(C(=O)C(F)(F)F)C2(C)C` [Example 1463, N-((1R,2R)-2-{5-Chloro-2-[7-methoxy-5,5-dimethyl-2-oxo-4-(2,2,2-trifluoro-acetyl)-2,3,4,5-tetrahydro-1H-benzo[e][1,4]diazepin-8-ylamino]-pyrimidin-4-ylamino}-cyclohexyl)-methanesulfonamide], for which the IC50 in assay [1] (setting [5]) is above 10000 nM; in assay [2] (setting [6]), below 100 nM.
For `O=C1CCCc2ccc(Nc3ncc(Cl)c(Nc4ccccc4OCCN4CCOCC4)n3)cc2N1` [Example 1465, 8-{5-Chloro-4-[2-(2-morpholin-4-yl-ethoxy)-phenylamino]-pyrimidin-2-ylamino}-1,3,4,5-tetrahydro-benzo[b]azepin-2-one] the same measures were above 10000 nM and above 10000 nM.
For the compound `COCCN1CCc2ccc(Nc3ncc(Cl)c(Nc4ccccc4OCCN4CCOCC4)n3)cc2CC1` [Example 1466, 5-Chloro-N*2*-[3-(2-methoxy-ethyl)-2,3,4,5-tetrahydro-1H-enzo[d]azepin-7-yl]-N*4*-[2-(2-morpholin-4-yl-ethoxy)-phenyl]-pyrimidine-2,4-diamine], the IC50 is above 10000 nM in assay [1] (setting [5]) and 1000 to 10000 nM in assay [2] (setting [6]).
The matching figures for `CNC(=O)c1cccc(F)c1Nc1nc(Nc2ccc3c(c2)CCN(CCOC)CC3)ncc1Br` [Example 1471, 2-{5-Bromo-2-[3-(2-methoxy-ethyl)-2,3,4,5-tetrahydro-1H-benzo[d]azepin-7-ylamino]-pyrimidin-4-ylamino}-3-fluoro-N-methyl-benzamide]: below 100 nM and below 100 nM.
